Test results as given in article PMC6639853, “Deciphering Direct and Indirect Effects of Neurokinin B and GnRH in the Brain-Pituitary Axis of Tilapia” (Frontiers in Endocrinology, 2019).
Several values for one entry are separate records, joined by “and”; a condition that tells them apart may be missing. Identical values can stand only once. Like-named read-outs stand apart in the source and are kept apart here. Starred links: 1 amine or outer side, 2 acyl side, 3 side chain; linkers in the order of their positions; H or OH if unused. Non-standard residues stand in square brackets, D forms with d. Residues, ends and D or L forms follow the SMILES beside them. NMeI = CC[C@H](C)[C@H](NC)C(=O)O; Suc = O=C(CCC(=O)[*:2])[*:1]; NMeV = CN[C@H](C(=O)O)C(C)C

How the values were obtained:
huTAC3R (NK3R) = target: T1, huTAC3R (NK3R) (Homo sapiens, UniProt P29371); experiment: CRE-/SRE-Luc receptor transactivation reporter assay in COS-7 cells, human TAC3R; type: cell-based; details: mean ± SEM
T1 construct: host or cells: COS-7
T1 sequence (P29371 1-465): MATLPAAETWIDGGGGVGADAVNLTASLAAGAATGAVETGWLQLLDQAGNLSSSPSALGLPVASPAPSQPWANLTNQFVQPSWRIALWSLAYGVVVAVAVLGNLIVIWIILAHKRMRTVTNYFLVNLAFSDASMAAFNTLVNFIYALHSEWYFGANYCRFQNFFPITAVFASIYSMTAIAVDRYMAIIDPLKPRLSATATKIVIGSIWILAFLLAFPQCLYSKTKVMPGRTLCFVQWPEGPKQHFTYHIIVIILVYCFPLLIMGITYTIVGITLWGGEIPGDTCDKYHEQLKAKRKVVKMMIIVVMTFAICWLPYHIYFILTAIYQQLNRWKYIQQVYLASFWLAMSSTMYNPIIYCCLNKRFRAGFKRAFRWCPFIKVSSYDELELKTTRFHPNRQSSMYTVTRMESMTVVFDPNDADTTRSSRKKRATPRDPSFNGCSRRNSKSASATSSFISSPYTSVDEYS
From the text: (§1) Receptor transactivation assays were generally performed according to Biran et al. ([10]). Briefly, in order to study the signaling pathways of the novel fish NKB and NKF analogs, the entire coding sequence of tiTac3ra (GenBank accession no. KF471674), tiTac3rb (GenBank accession no. KF471675), zfTac3ra (GenBank accession no. JF317292) and zfTac3rb (GenBank accession no. JF317293) were inserted into pcDNA3.1 (Invitrogen). To differentiate between the protein kinase A (PKA) and PKC signal transduction pathways, we used a sensitive luciferase (Luc) reporter gene assay. […] The cDNA clone for human TAC3R was obtained from the Missouri S&T cDNA Resource Center (www.cdna.org). Three micrograms of each construct together with three micrograms of a luciferase reporter plasmid were transiently co-transfected into COS-7 cells. […] EC50 values were calculated from dose response curves by means of computerized non-linear curve fitting on baseline-corrected (control) values using Prism version 6 software (GraphPad).

zfTac3ra = target: T2, zfTac3ra (Danio rerio, UniProt H6A6A7); experiment: CRE-/SRE-Luc receptor transactivation reporter assay in COS-7 cells, zebrafish Tac3ra; type: cell-based; details: mean ± SEM
T2 sequence (H6A6A7 1-399): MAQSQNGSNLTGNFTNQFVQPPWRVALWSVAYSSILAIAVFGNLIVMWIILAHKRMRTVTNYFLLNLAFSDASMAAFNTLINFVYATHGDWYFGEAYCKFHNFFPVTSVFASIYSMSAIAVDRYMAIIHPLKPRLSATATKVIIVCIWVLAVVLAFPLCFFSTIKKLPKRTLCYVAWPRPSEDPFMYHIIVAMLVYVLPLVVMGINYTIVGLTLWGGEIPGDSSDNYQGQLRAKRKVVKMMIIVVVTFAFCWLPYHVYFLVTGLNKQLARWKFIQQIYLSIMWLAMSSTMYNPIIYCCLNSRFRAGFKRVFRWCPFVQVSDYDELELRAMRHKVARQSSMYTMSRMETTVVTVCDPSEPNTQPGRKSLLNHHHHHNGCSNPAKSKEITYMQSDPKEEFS
From the text: as §1

zfTac3rb = target: T3, zfTac3rb (Danio rerio, UniProt F1R3V0); experiment: CRE-/SRE-Luc receptor transactivation reporter assay in COS-7 cells, zebrafish Tac3rb; type: cell-based; details: mean ± SEM
T3 sequence (F1R3V0 1-395): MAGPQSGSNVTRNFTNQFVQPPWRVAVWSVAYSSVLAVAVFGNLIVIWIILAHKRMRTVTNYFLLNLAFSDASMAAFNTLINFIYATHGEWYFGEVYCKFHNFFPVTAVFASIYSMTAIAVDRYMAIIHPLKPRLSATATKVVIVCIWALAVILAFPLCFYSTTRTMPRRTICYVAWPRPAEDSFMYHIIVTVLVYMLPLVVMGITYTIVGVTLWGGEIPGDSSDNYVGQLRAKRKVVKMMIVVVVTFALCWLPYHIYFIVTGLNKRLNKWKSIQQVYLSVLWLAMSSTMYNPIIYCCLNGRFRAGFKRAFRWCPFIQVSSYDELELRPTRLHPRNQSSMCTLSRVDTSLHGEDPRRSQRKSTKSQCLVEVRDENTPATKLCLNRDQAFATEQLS
From the text: as §1

female tilapia = experiment: In vivo effect on GH, FSH and LH plasma levels (ELISA) after IP injection; set-up: species or system Nile tilapia (O. niloticus); details: peptides/analogs 100 μg/kg BW, sGnRHa 10 μg/kg BW
Procedure: Adult female tilapia (BW 89.29 ± 32.93 g) were injected IP with saline, sGnRH analog ([…]; 10 μg/kg BW; [[…],[…]-Net]-mammalian GnRH; Bachem), tiNKB, tiNKF, or their analogs at 100 μg/kg BW (n = 8 fish per group). The fish were bled from the caudal blood vessels into heparinized syringes 1, 2, 4, 8, and 24 h after injection and blood was centrifuged (3,200 rpm for 30 min at 4°C) to obtain plasma samples, which were stored at -20°C until assayed. This time course is according to standard protocols used previously ([28], [29]) to test the effect of GnRH and other hypothalamic neuropeptides on circulating levels of LH, FSH, and GH in tilapia. Blood samples were collected from the caudal vasculature. Three independent experiments were carried out for the in vivo studies. Levels of LH, FSH, and GH in the plasma were measured by specific competitive ELISAs developed for tilapia ([30], [31]) based on recombinant ([…] or rtiGH. Primary antisera was produced against […]β, or rtGH ([31]), and […]βα ([28]) or rtGH was used for generating the standard curves.

tiTac3ra = tiTac3ra (Oreochromis niloticus, UniProt A0A075QPN8); experiment: cell-based; details: COS-7 cells, mean ± SEM
From the text: (§2) Receptor transactivation assays were generally performed according to Biran et al. ([10]). Briefly, in order to study the signaling pathways of the novel fish NKB and NKF analogs, the entire coding sequence of tiTac3ra (GenBank accession no. KF471674), tiTac3rb (GenBank accession no. KF471675), zfTac3ra (GenBank accession no. JF317292) and zfTac3rb (GenBank accession no. JF317293) were inserted into pcDNA3.1 (Invitrogen). To differentiate between the protein kinase A (PKA) and PKC signal transduction pathways, we used a sensitive luciferase (Luc) reporter gene assay. […] Three micrograms of each construct together with three micrograms of a luciferase reporter plasmid were transiently co-transfected into COS-7 cells. […] EC50 values were calculated from dose response curves by means of computerized non-linear curve fitting on baseline-corrected (control) values using Prism version 6 software (GraphPad).

tiTac3rb = tiTac3rb (Oreochromis niloticus, UniProt A0A075QUD7); experiment: cell-based; details: COS-7 cells, mean ± SEM
From the text: as §2

[1] = CRE-Luc reporter (PKA/cAMP), read-out: EC50 huTAC3R (NK3R) CRE
[2] = SRE-Luc reporter (PKC/Ca2+), read-out: EC50 huTAC3R (NK3R) SRE
[3] = CRE-Luc reporter (PKA/cAMP), read-out: EC50 zfTac3ra CRE
[4] = SRE-Luc reporter (PKC/Ca2+), read-out: EC50 zfTac3ra SRE
[5] = CRE-Luc reporter (PKA/cAMP), read-out: EC50 zfTac3rb CRE
[6] = SRE-Luc reporter (PKC/Ca2+), read-out: EC50 zfTac3rb SRE
[7] = EC50 tiTac3ra CRE, CRE-Luc reporter (PKA/cAMP)
[8] = EC50 tiTac3ra SRE, SRE-Luc reporter (PKC/Ca2+)
[9] = EC50 tiTac3rb CRE, CRE-Luc reporter (PKA/cAMP)
[10] = EC50 tiTac3rb SRE, SRE-Luc reporter (PKC/Ca2+)

Sequence of tiTac3rb (A0A075QUD7 1-361): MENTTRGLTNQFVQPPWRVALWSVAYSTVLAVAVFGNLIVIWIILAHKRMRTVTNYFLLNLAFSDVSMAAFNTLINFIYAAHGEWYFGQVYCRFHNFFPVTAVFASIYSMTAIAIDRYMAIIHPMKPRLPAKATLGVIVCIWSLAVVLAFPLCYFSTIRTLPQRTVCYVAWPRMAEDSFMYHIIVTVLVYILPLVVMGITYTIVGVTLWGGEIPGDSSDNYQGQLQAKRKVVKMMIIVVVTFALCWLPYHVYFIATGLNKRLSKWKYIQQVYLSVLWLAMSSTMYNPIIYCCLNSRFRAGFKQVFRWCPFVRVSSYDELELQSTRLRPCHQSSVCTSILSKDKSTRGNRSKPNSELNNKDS
Sequence of tiTac3ra (A0A075QPN8 1-415): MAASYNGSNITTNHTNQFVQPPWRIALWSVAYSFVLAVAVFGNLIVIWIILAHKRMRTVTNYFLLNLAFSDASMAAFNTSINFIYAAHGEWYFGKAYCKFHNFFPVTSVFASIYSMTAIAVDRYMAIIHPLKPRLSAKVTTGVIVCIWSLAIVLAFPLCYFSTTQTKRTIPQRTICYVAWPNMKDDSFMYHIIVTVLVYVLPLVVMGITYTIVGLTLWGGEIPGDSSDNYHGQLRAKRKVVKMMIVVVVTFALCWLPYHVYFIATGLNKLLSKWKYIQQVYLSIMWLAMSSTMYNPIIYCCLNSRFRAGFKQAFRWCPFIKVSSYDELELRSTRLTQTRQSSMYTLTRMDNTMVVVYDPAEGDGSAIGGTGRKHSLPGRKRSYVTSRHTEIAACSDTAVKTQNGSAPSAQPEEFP

| Molecule | EC50 (huTAC3R (NK3R); [1]) [nM] | EC50 (huTAC3R (NK3R); [2]) [nM] | EC50 (zfTac3ra; [3]) | EC50 (zfTac3ra; [4]) [nM] | EC50 (zfTac3rb; [5]) [nM] | EC50 (zfTac3rb; [6]) [nM] | duration of increased plasma LH post-injection (female tilapia) | EC50 (tiTac3ra; [7]) [nM] | EC50 (tiTac3ra; [8]) | EC50 (tiTac3rb; [9]) [nM] | EC50 (tiTac3rb; [10]) [nM] |
| --- | --- | --- | --- | --- | --- | --- | --- | --- | --- | --- | --- |
| [D-Ala^6,Pro^9-Net]-mammalian GnRH [sGnRHa] | – | – | – | – | – | – | up to 4 h | – | – | – | – |
| CSCC[C@H](NC(=O)[C@H](CC(C)C)NC(=O)CNC(=O)[C@@H](NC(=O)[C@H](Cc1ccccc1)NC(=O)[C@H](CO)NC(=O)[C@H](CC(=O)O)NC(=O)[C@H](Cc1ccc(O)cc1)NC(=O)[C@H](CC(=O)O)NC(=O)[C@H](CC(C)C)NC(=O)[C@H](CC(=O)O)NC(=O)[C@H](CC(N)=O)NC(=O)[C@@H](N)Cc1ccc(O)cc1)C(C)C)C(N)=O [tiNKF] (H-YNDLDYDSFVGLM-NH2) | 0.51 ± 0.24 | 32.58 ± 0.05 | – | – | – | – | – | 3.17 ± 0.18 | 0.2 nM and 0.24 nM | 2.13 ± 0.42 | 0.46 ± 0.49 |
| CC[C@H](C)[C@H](NC(=O)[C@H](CC(=O)O)NC(=O)CCC(=O)O)C(=O)N[C@@H](Cc1ccccc1)C(=O)N(C)[C@H](C(=O)NCC(=O)N[C@@H](CC(C)C)C(=O)N[C@@H](CCSC)C(N)=O)[C@@H](C)CC [tiNKB analog, Succ-Asp-Ile-Phe-N(Me)Ile-Gly-Leu-Met-NH2] (Suc-DIF[NMeI]GLM-NH2) | – | 210.2 ± 1.18 | – | – | – | – | – | 12.9 ± 0.36 | 12.3 ± 0.29 nM | 6.88 ± 0.29 | 1.73 ± 0.46 |

Second part, led by results:

| EC50 (huTAC3R (NK3R); [1]) [nM] | EC50 (huTAC3R (NK3R); [2]) [nM] | EC50 (zfTac3ra; [3]) | EC50 (zfTac3ra; [4]) [nM] | EC50 (zfTac3rb; [5]) [nM] | EC50 (zfTac3rb; [6]) [nM] | Molecule | duration of increased plasma LH post-injection (female tilapia) | EC50 (tiTac3ra; [7]) [nM] | EC50 (tiTac3ra; [8]) | EC50 (tiTac3rb; [9]) [nM] | EC50 (tiTac3rb; [10]) [nM] |
| --- | --- | --- | --- | --- | --- | --- | --- | --- | --- | --- | --- |
| 1.25 | 0.18 ± 0.52 | 5.47 ± 0.43 nM | 0.51 ± 0.36 | 0.032 | 25.51 ± 0.23 | CC[C@H](C)[C@H](NC(=O)[C@H](CC(=O)O)NC(=O)[C@H](CC(N)=O)NC(=O)[C@@H](N)Cc1ccc(O)cc1)C(=O)N[C@@H](CC(=O)O)C(=O)N[C@@H](Cc1ccc(O)cc1)C(=O)N[C@@H](CC(=O)O)C(=O)N[C@@H](CO)C(=O)N[C@@H](Cc1ccccc1)C(=O)N[C@H](C(=O)NCC(=O)N[C@@H](CC(C)C)C(=O)N[C@@H](CCSC)C(N)=O)C(C)C [zfNKF] (H-YNDIDYDSFVGLM-NH2) | – | – | – | – | – |
| 11.5 ± 0.4 | 0.03 | 873.2 ± 0.64 nM | 7.88 ± 1.89 | 0.781 ± 0.15 | 5.79 ± 0.52 | CC[C@H](C)[C@H](NC(=O)[C@H](CC(=O)O)NC(=O)CCC(=O)O)C(=O)N[C@@H](Cc1ccccc1)C(=O)N(C)[C@H](C(=O)NCC(=O)N[C@@H](CC(C)C)C(=O)N[C@@H](CCSC)C(N)=O)C(C)C [zfNKBa analog, Succ-Asp-Ile-Phe-N(Me)Val-Gly-Leu-Met-NH2] (Suc-DIF[NMeV]GLM-NH2) | – | – | – | – | – |
| 1.71 ± 0.32 | 0.11 ± 0.3 | 26.5 ± 0.38 nM | 139.6 ± 0.38 | 41.37 ± 0.18 | 1.1 ± 0.13 | CC[C@H](C)[C@H](NC(=O)[C@H](CC(=O)O)NC(=O)[C@H](Cc1c[nH]cn1)NC(=O)[C@H](CCSC)NC(=O)[C@@H](N)CCC(=O)O)C(=O)N[C@@H](Cc1ccccc1)C(=O)N[C@H](C(=O)NCC(=O)N[C@@H](CC(C)C)C(=O)N[C@@H](CCSC)C(N)=O)C(C)C [zfNKBa] (H-EMHDIFVGLM-NH2) | – | – | – | – | – |
| 17.4 ± 0.15 | 18.7 ± 0.25 | 0.94 nM and 0.948 nM | 84.98 ± 0.31 | 101.4 ± 0.37 | 17.9 ± 0.43 | CC[C@H](C)[C@H](NC(=O)CNC(=O)[C@@H](NC(=O)[C@@H](N)CO)[C@@H](C)O)C(=O)N[C@@H](CC(N)=O)C(=O)N[C@@H](CCCNC(=N)N)C(=O)N[C@@H](CCC(=O)O)C(=O)N[C@@H](C)C(=O)N[C@@H](Cc1c[nH]cn1)C(=O)N[C@@H](CC(C)C)C(=O)N1CCC[C@H]1C(=O)N[C@@H](Cc1ccccc1)C(=O)N[C@@H](CCCNC(=N)N)C(=O)N1CCC[C@H]1C(=O)N[C@@H](CC(N)=O)C(=O)N[C@@H](CCSC)C(=O)N[C@@H](CC(N)=O)C(=O)N[C@@H](CC(=O)O)C(=O)N[C@H](C(=O)N[C@@H](Cc1ccccc1)C(=O)N[C@H](C(=O)NCC(=O)N[C@@H](CC(C)C)C(=O)N[C@@H](CC(C)C)C(=O)N[C@@H](CCC(=O)O)C(=O)N[C@@H](CCSC)C(=O)N[C@@H](Cc1c[nH]cn1)C(=O)N[C@@H](CC(=O)O)C(=O)N[C@H](C(=O)N[C@@H](Cc1ccccc1)C(=O)N[C@H](C(=O)NCC(=O)N[C@@H](CC(C)C)C(=O)N[C@@H](CCSC)C(N)=O)C(C)C)[C@@H](C)CC)C(C)C)[C@@H](C)CC [zfNKBb] (H-STGINREAHLPFRPNMNDIFVGLLEMHDIFVGLM-NH2) | – | – | – | – | – |
